{"source": "patent US5534535A", "about": "“Therapeutic nucleosides” (Burroughs Wellcome Co., priority 1992, dated 1996)", "test_system": "HBV", "assay": "Anti-HBV assay: HBV DNA in supernatants of HBV-producing cells (HepG2 2.2.15, P5A cell line), immunoaffinity capture, PCR and hybrid-capture detection", "format": "cell-based, Hepatitis B virus", "settings": "table headed Anti-HCMV Activity", "procedure": "Anti-HBV activity of compounds of formula (I) and (I-1) was determined with a high-capacity assay for assessing efficacy. Supernatants from growing HBV-producing cells (HepG2 2.2.15, P5A cell line) in 96-well plates are applied to microtiter plate wells which have been coated with a specific monoclonal antibody to HBV surface antigen (HBsAg). Virus particles present in the supernatants bind to the antibody and remain immobilized while other debris is removed by washing. These virus particles are then denatured to release HBV DNA strands which are subsequently amplified by the polymerase chain reaction and detected with a colorimetric hybrid-capture assay. Quantitation is achieved through fitting of a standard curve to dilutions of a cell supernatant with known HBV DNA content. By comparing HBV DNA levels of untreated control cell supernatants with supernatants containing a compound of formula (I) or (I-1), a measure of anti-HBV effectiveness is obtained.\nHBV producer cells, 2500 cells/well, were seeded in 96-well culture dishes in RPMI/10% fetal bovine serum/2 mM glutamine (RPMI/10/2:). […] Twenty-five uL HBV standard media dilutions in RPMI/10/2 were added to 2 rows of wells to serve as an internal standard curve for quantitation, and the plates were sealed and incubated at 4° C. overnight. […]\nPolymerase chain reaction (Saiki, R. K. et al., Science, 239 (4839) 487-91 (1988)) was carried out on 5 uL samples, using a Perkin Elmer PCR kit. […] Primers were chosen from conserved regions in the HBV genome, as determined by alignment of several sequences. […]\nPCR products were detected with horse radish peroxidase-labeled oligonucleotide probes (Synthecell Corp., Rockville, Md. 20850), which hybridize to biotinylated strands of denatured PCR products directly in streptavidin-coated microtiter plate wells, using essentially the method of Holodiniy, M. et al., Bio Techniques, 12 (1)37-39 (1992). […] Quantities of HBV DNA present in the original samples were calculated by comparison with standards. […]", "key": {"[1]": {"settings": "Hepatitis B virus, HepG2 2.2.15, read-out: Anti-HBV activity, approximate IC50 (50 percent decrease in HBV DNA), HepG2 2.2.15, P5A cell line"}}, "note": "Like-named read-outs stand apart in the source and are kept apart here.", "data": [{"smiles": "OC[C@@H]1C[C@@H](O)[C@H](n2c(Br)nc3cc(Cl)c(Cl)cc32)C1", "note": "(relative stereo) [Ex. 13, (±)-(1R*, 2R*, 4S*)-2-(2-Bromo-5,6-dichloro-1H-benzimidazol-1-yl)-4-(hydroxymethyl)cyclo-pentanol]", "values": [{"measurement": "IC50", "setting": "[1]", "result": 5000, "unit": "nM"}]}, {"smiles": "OC[C@@H]1C[C@H](n2c(Br)nc3cc(Cl)c(Cl)cc32)[C@@H](O)[C@H]1O", "note": "[Ex. 69, (1R, 2S, 3S, 5S)-5-(2-Bromo-5,6-dichloro-1H-benzimidazol-1-yl)-3-(hydroxymethyl)-1,2-cyclopentanediol]", "values": [{"measurement": "IC50", "setting": "[1]", "result": 720, "unit": "nM"}, {"measurement": "IC50", "setting": "read-out: Anti-HBV activity, approximate IC50 (50 percent decrease in HBV DNA), HepG2 2.2.15, P5A cell line", "result": 1300, "unit": "nM"}]}]}
